Two compounds from patent publication US20230087941A1, “COMBINATIONS” (Recurium IP Holdings, LLC, priority 2019, published 2023) can be followed below.

In test [1] the test system is ZR-75-1-R breast cancer tumor cells (Tamoxifen resistant). Put plainly: ZR-75-1-R xenograft tumor model. It is filed as in vivo. The conditions noted are these: oral, daily, 28 days, ZR-75-1-R xenograft in BALB/c nude mice. How it is done: (§1) ZR-75-1-R breast cancer tumor cells (Tamoxifen resistant) were maintained in vitro as monolayer culture in RPMI1640 Medium supplemented with 10% fetal bovine serum and 10 μM tamoxifen at 37° C. in an atmosphere of 5% CO2 in air. The cells growing in an exponential growth phase were harvested and counted for tumor inoculation. BALB/c nude mice were implanted subcutaneously in the right flank with ZR-75-1-R tumor cells (1×10^7) in 100 μl PBS:Matrigel (1:1). When tumors reached approximately 191 mm^3, animals were randomly distributed into treatment groups of 10 animals each and dosed orally, daily with vehicle, freebase Compound (A) at 30 mg/kg, Compound 1 at 80 mg/kg, or compound A at 30 mg/kg in combination with Compound 1 at 80 mg/kg for 28 days. In addition, estradiol benzoate injections were delivered by s.c. (40 μg/20 μL, twice weekly). Tumor volumes were evaluated twice per week to calculate tumor volume over time, and mice were weighed twice per week as a surrogate for signs of toxicity. Tumor growth inhibition (TGI) was calculated using the following equation TGI=(1−(Td−T0)/(Cd−C0))×100%. Td and Cd are the mean tumor volumes of the treated and control animals, and TO and CO are the mean tumor volumes of the treated and control animals at the start of the experiment.

In test [2] the test system is MCF-7 breast cancer tumor cells. The experiment in a line: MCF-7 xenograft tumor model. The test is classed as in vivo. The conditions noted are these: Compound 1 80 mg/kg, oral, daily; MCF-7 xenograft in BALB/c nude mice. As for the experimental part:
as §1, with “In addition, estradiol benzoate injections were delivered by s.c. (40 μg/20 μL, twice weekly).” left out, “Tumor growth inhibition (TGI) was calculated using the following equation TGI=(1−(Td−T0)/(Cd−C0))×100%. Td and Cd are the mean tumor volumes of the treated and control animals, and TO and CO are the mean tumor volumes of the treated and control animals at the start of the experiment.” left out
Example 2: MCF-7 breast cancer tumor cells were cultured in vitro in DMEM Medium supplemented with 15% fetal bovine serum at 37° C. in an atmosphere of 5% CO2 in air. The cells growing in an exponential growth phase were harvested and counted for tumor inoculation. […] Tumor volumes were evaluated twice per week to calculate tumor volume over time, and mice were weighed twice per week as a surrogate for signs of toxicity. TGI values were calculated using the equation provide in Example 1.

With `C=CCn1c(=O)c2cnc(Nc3ccc(N4CCN(C)CC4)cc3)nc2n1-c1ccc2c(n1)[C@@](O)(CC)CC2` [Compound 1], the entries for the “Tumor growth inhibition (TGI)” value in test [1] (Compound 1 80 mg/kg) and in test [2] were 69.9% and 132.6%, respectively.

On to `C[C@@H]1Cc2c([nH]c3ccccc23)[C@@H](c2c(F)cc(/C=C/C(=O)O)cc2F)N1C12CC(C1)C2` [Compound (A)], for which the “Tumor growth inhibition (TGI)” value in test [1] (freebase Compound (A) 30 mg/kg) is 43.0%.
